Laboratory results as given in patent US20040248880A1, “1,2,3,4,5,6-Hexahydroazepino[4,5-B]indoles containing arylsulfones at the 9-position” (priority 2003, published 2004).
Counter-ions that a name gives are not always drawn.

melting point | SMILES
290 to 291.5 °C | Cl.O=S(=O)(c1ccccc1)c1ccc2[nH]c3c(c2c1)CCNCC3
> 300 °C | Cl.Cn1c2c(c3cc(S(=O)(=O)c4ccccc4)ccc31)CCNCC2
320 °C (dec.) | Cl.O=S(=O)(c1ccc(F)c(F)c1)c1ccc2[nH]c3c(c2c1)CCNCC3
313 to 315 °C (dec.) | Cl.O=S(=O)(c1cc(F)cc(F)c1)c1ccc2[nH]c3c(c2c1)CCNCC3
337 to 340 °C (dec.) | Cl.Cn1c2c(c3cc(S(=O)(=O)c4cc(F)cc(F)c4)ccc31)CCNCC2
150 °C (dec.) | CN1CCc2[nH]c3ccc(S(=O)(=O)c4ccccc4)cc3c2CC1
232 to 235 °C (dec.) | COc1cccc(S(=O)(=O)c2ccc3[nH]c4c(c3c2)CCNCC4)c1.Cl
278 to 279 °C (dec.) | Cl.O=S(=O)(c1ccc(C(F)(F)F)cc1)c1ccc2[nH]c3c(c2c1)CCNCC3
227 to 233 °C (dec.) | CCn1c2c(c3cc(S(=O)(=O)c4ccc(F)cc4)ccc31)CCNCC2.Cl
285 to 287 °C (dec.) | Cn1c2c(c3cc(S(=O)(=O)c4ccc(OCCO)cc4)ccc31)CCNCC2 (as salt: hydrochloride) [Example 17, 9-[(4-(2-Hydroxyethoxy)phenyl)sulfonyl]-6-methyl-1,2,3,4,5,6-hexahydroazepino[4,5-b]indole hydrochloride]
168 °C (dec.) | O=S(=O)(c1ccc(F)cc1)c1ccc2[nH]c3c(c2c1)CCNCC3 [Example 2, 9-[(4-Fluorophenyl)sulfonyl]-1,2,3,4,5,6-hexahydroazepino[4,5-b]indole]
125 °C (dec.) | Cc1ccc(S(=O)(=O)c2ccc3[nH]c4c(c3c2)CCNCC4)cc1 [Example 3, 9-[(4-Methylphenyl)sulfonyl]-1,2,3,4,5,6-hexahydroazepino[4,5-b]indole]
139 °C (dec.) | COc1ccc(S(=O)(=O)c2ccc3[nH]c4c(c3c2)CCNCC4)cc1 [Example 4, 9-[(4-Methoxyphenyl)sulfonyl]-1,2,3,4,5,6-hexahydroazepino[4,5-b]indole]
153 to 156 °C | O=S(=O)(c1cccc(F)c1)c1ccc2[nH]c3c(c2c1)CCNCC3 [Example 5, 9-[(3-Fluorophenyl)sulfonyl]-1,2,3,4,5,6-hexahydroazepino[4,5-b]indole]
224 °C (dec.) | CCn1c2c(c3cc(S(=O)(=O)c4ccccc4)ccc31)CCNCC2 [Example 8, 6-Ethyl-9-(phenylsulfonyl)-1,2,3,4,5,6-hexahydroazepino[4,5-b]indole]
283 to 286 °C | CN1CCc2c(n(C)c3ccc(S(=O)(=O)c4ccccc4)cc23)CC1 [Example 18, 3,6-Dimethyl-9-(phenylsulfonyl)-1,2,3,4,5,6-hexahydroazepino[4,5-b]indole]
282 to 283 °C (dec.) | CC(C)N1CCc2c(n(C)c3ccc(S(=O)(=O)c4ccc(F)cc4)cc23)CC1 [Example 20, 9-[(4-fluorophenyl)sulfonyl]-3-isopropyl-6-methyl-1,2,3,4,5,6-hexahydroazepino[4,5-b]indole]
